Test results as given in the supplement of paper PMC9151546.
Counter-ions that a name gives are not always drawn.

Columns and labels:
CHO-K1 [1] = test: benchmark concentration for 60% increase in hypodiploid frequency (BMC60); higher = less potent aneugen
Description: (§1)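 Benchmark concentration modelling (PROAST, Hill/exponential model families) of the 19-concentration flow-cytometric micronucleus assay in CHO-K1 cells, with and without rat liver S9. Only non-cytotoxic and adequate (relative survival >=40%) concentrations were used. BMR was a 30% increase in %MN (BMC30) or a 60% increase in %hypodiploid (BMC60) over control.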

CHO-K1 [2] = test: benchmark concentration for 30% increase in micronucleus frequency (BMC30); higher = less potent clastogen
Description: as §1

[3] = S9 metabolic activation: without S9
[4] = S9 metabolic activation: with S9

Row | Structure (SMILES) | benchmark concentration (CHO-K1 [1]; [3]) | benchmark concentration (CHO-K1 [2]; [3]) | benchmark concentration (CHO-K1 [2]; [4]) | benchmark concentration (CHO-K1 [1]; [4])
1 | O=S1(=O)CCCO1 [1,3-Propane sultone] | 80 µM | 110 µM | – | –
2 | CCOCN(C(=O)CCl)c1c(C)cccc1CC [Acetochlor] | – | 39 µM | 79 µM | –
3 | Cc1ccc(O)cc1C [3,4-Dimethylphenol] | 74 µM | 120 µM | – | –
4 | O=C(c1ccc(OCCN2CCCCC2)cc1)c1c(-c2ccc(O)cc2)sc2cc(O)ccc12 [Raloxifene hydrochloride] | – | 28 µM | 70 µM | –
5 | Cc1ccc(O)cc1 [p-Cresol] | 79 µM | 73 µM | – | –
6 | c1ccc(C2CO2)cc1 (centres undefined) [Styrene oxide] | 19 µM | 96 µM | – | –
7 | c1ccc2c(c1)Nc1ccccc1S2 [Phenothiazine] | – | – | 17 µM | 25 µM
8 | NS(=O)(=O)c1cc2c(cc1Cl)NCNS2(=O)=O [Hydrochlorothiazide] | 73 µM | – | 29 µM | –
9 | Cc1cc(-c2ccc(N)c(C)c2)ccc1N [3,3'-Dimethylbenzidine] | 20 µM | 99 µM | – | –
10 | CC(C)(c1cc(Br)c(O)c(Br)c1)c1cc(Br)c(O)c(Br)c1 [3,3',5,5'-Tetrabromobisphenol A] | 37 µM | 44 µM | – | 28 µM
11 | O=C(O)C1=NN(c2ccc(S(=O)(=O)O)cc2)C(=O)C1N=Nc1ccc(S(=O)(=O)O)cc1 (centres undefined) [FD&C Yellow 5] | 47 µM | 25 µM | 15 µM | –
12 | O=C(OC[C@H]1O[C@@H](OC(=O)c2cc(O)c(O)c(OC(=O)c3cc(O)c(O)c(O)c3)c2)[C@H](OC(=O)c2cc(O)c(O)c(OC(=O)c3cc(O)c(O)c(O)c3)c2)[C@@H](OC(=O)c2cc(O)c(O)c(OC(=O)c3cc(O)c(O)c(O)c3)c2)[C@@H]1OC(=O)c1cc(O)c(O)c(OC(=O)c2cc(O)c(O)c(O)c2)c1)c1cc(O)c(O)c(OC(=O)c2cc(O)c(O)c(O)c2)c1 [Tannic acid] | 0.84 µM | – | 0.9 µM | 1.3 µM
13 | Cc1cccc2ccccc12 [1-Methylnaphthalene] | 110 µM | 57 µM | – | –
14 | Nc1ccc(Nc2ccccc2)cc1 [N-Phenyl-1,4-benzenediamine] | < 4.5 µM | – | 87 µM | –
15 | Nc1ccc([N+](=O)[O-])cc1 [4-Nitroaniline] | 100 µM | 11 µM | – | –
16 | Oc1ccc2ccccc2c1N=Nc1ccccc1 [C.I. Solvent Yellow 14] | 11 µM | 23 µM | – | 91 µM
17 | CN(C)c1ccc(C(=C2C=CC(=[N+](C)C)C=C2)c2ccc(N(C)C)cc2)cc1 [Gentian Violet] | – | – | 0.91 µM | 0.23 µM
18 | O=c1[nH]cc(F)c(=O)[nH]1 [5-Fluorouracil] | 99 µM | 110 µM | – | –
19 | CCCOC(=O)c1cc(O)c(O)c(O)c1 [Propyl gallate] | – | 17 µM | 24 µM | –
20 | CC(C)(OOC(C)(C)c1ccccc1)c1ccccc1 [Dicumyl peroxide] | – | 5.5 µM | 88 µM | –
21 | O=C(O)C1C(C(=O)O)C2(Cl)C(Cl)=C(Cl)C1(Cl)C2(Cl)Cl (centres undefined) [Chlorendic acid] | 97 µM | 110 µM | – | –
22 | O=C(c1ccccc1)c1ccccc1 [Benzophenone] | 28 µM | 59 µM | – | –
23 | CCCCc1oc2ccccc2c1C(=O)c1cc(I)c(OCCN(CC)CC)c(I)c1 [Amiodarone hydrochloride] | – | – | 16 µM | 11 µM
24 | c1ccc2c(c1)oc1ccccc12 [Dibenzofuran] | – | – | 33 µM | –
25 | Nc1ccn([C@@H]2O[C@H](CO)[C@@H](O)[C@@H]2O)c(=O)n1 [Cytarabine hydrochloride] | – | – | 5.9 µM | 27 µM
26 | NNC(=O)c1ccncc1 [Isoniazid] | 51 µM | – | 21 µM | –
27 | O=C1OC(c2ccc(O)cc2)(c2ccc(O)cc2)c2ccccc21 [Phenolphthalein] | – | 22 µM | – | –

Row | Structure (SMILES) | benchmark concentration (CHO-K1 [1]; [3]) | benchmark concentration (CHO-K1 [2]; [3]) | benchmark concentration (CHO-K1 [2]; [4]) | benchmark concentration (CHO-K1 [1]; [4])
28 | O=C(O)C(F)(F)C(F)(F)C(F)(F)C(F)(F)C(F)(F)C(F)(F)C(F)(F)C(F)(F)C(F)(F)F [PFDA] | 73 µM | – | 73 µM | –
29 | Oc1cccc2cccnc12 [8-Hydroxyquinoline] | – | 26 µM | 16 µM | –
30 | CN(C)CCCN1c2ccccc2Sc2ccc(Cl)cc21 [Chlorpromazine hydrochloride] | – | 23 µM | – | –
31 | CS(=O)(=O)OCCCCOS(C)(=O)=O [Busulfan] | – | 19 µM | – | –
32 | CC(N)=O [Acetamide] | – | 5.8 µM | – | –
33 | O=CCCCC=O [Glutaraldehyde] | – | 28 µM | – | –
34 | CCC(C)c1cc([N+](=O)[O-])cc([N+](=O)[O-])c1O (centres undefined) [Dinoseb] | – | 49 µM | – | –
35 | CCOC(=O)C(O)(c1ccc(Cl)cc1)c1ccc(Cl)cc1 [Chlorobenzilate] | – | 47 µM | – | –
36 | O=Cc1ccco1 [Furfural] | – | 130 µM | – | –
37 | CCOC(N)=O [Urethane] | – | – | 32 µM | –
38 | O=C(O)c1cc(/N=N/c2ccc(S(=O)(=O)Nc3ccccn3)cc2)ccc1O [Sulfasalazine] | – | 65 µM | – | –
39 | C=CC(N)=O [Acrylamide] | – | – | 47 µM | –
40 | CCOc1ccc2c(c1)C(C)=CC(C)(C)N2 [Ethoxyquin] | – | 55 µM | 86 µM | –
41 | CCOC(=O)c1ccc(O)cc1 [Ethylparaben] | – | 70 µM | – | –
42 | CCCN(CCC)N=O [N-Nitrosodipropylamine] | – | – | 20 µM | –
43 | COCCOCCOC [Bis(2-methoxyethyl) ether] | – | – | 72 µM | –
44 | O=c1[nH]sc2ccccc12 [1,2-Benzisothiazolin-3-one] | – | – | 32 µM | –
45 | Oc1cc(Cl)ccc1Oc1ccc(Cl)cc1Cl [Triclosan] | – | – | 40 µM | –
46 | CC(=O)N1CCN(c2ccc(OCC3COC(Cn4ccnc4)(c4ccc(Cl)cc4Cl)O3)cc2)CC1 (centres undefined) [Ketoconazole] | – | – | 54 µM | –
47 | O=c1[nH]cnc2c1ncn2[C@H]1CC[C@@H](CO)O1 [2',3'-Dideoxyinosine] | – | 84 µM | – | –
48 | CCCCC(CC)COC(=O)CCCCC(=O)OCC(CC)CCCC (centres undefined) [Di(2-ethylhexyl) adipate] | – | 76 µM | – | –
49 | ClC1=C(Cl)C(Cl)(Cl)C(Cl)=C1Cl [Hexachlorocyclopentadiene] | – | < 4.5 µM | 23 µM | –
50 | O=c1c(-c2ccc(O)cc2)coc2cc(O)cc(O)c12 [Genistein] | – | 10 µM | – | –
51 | OCC1CO1 (centres undefined) [Glycidol] | – | 99 µM | – | –
52 | Cc1ccc(O)c(C)c1 [2,4-Dimethylphenol] | – | 79 µM | – | –
53 | CCCOC(=O)c1ccc(O)cc1 [Propylparaben] | – | – | 37 µM | –
54 | O=[N+]([O-])c1ccc(Oc2ccc(Cl)cc2Cl)cc1 [Nitrofen] | – | 77 µM | – | –

Row | Structure (SMILES) | benchmark concentration (CHO-K1 [1]; [3]) | benchmark concentration (CHO-K1 [2]; [3]) | benchmark concentration (CHO-K1 [2]; [4]) | benchmark concentration (CHO-K1 [1]; [4])
55 | C[C@@H]1C[C@@H]([C@H](O)CC2CC(=O)NC(=O)C2)C(=O)[C@@H](C)C1 [Cycloheximide] | – | – | < 4.5 µM | –
56 | O=P1(N(CCCl)CCCl)NCCCO1 (centres undefined) [Cyclophosphamide monohydrate] | – | 91 µM | – | –
57 | Nc1ccc(Cl)cc1N [4-Chloro-1,2-diaminobenzene] | – | 41 µM | – | –
58 | Cc1ccc(C(C)C)c(O)c1 [Thymol] | 100 µM | – | – | –
59 | O=[N+]([O-])c1ccccc1 [Nitrobenzene] | 26 µM | – | – | –
60 | CC(=O)OCCC(C)C [3-Methylbutyl acetate] | 13 µM | – | – | –
61 | O=c1c(O)c(-c2ccc(O)c(O)c2)oc2cc(O)cc(O)c12 [Quercetin] | 110 µM | – | – | –
62 | O=c1ccc2ccccc2o1 [Coumarin] | 9.7 µM | – | – | –
63 | COC(=O)c1ccccc1C(=O)OC [Dimethyl phthalate] | 120 µM | – | – | –
64 | CCOC(=O)C(C)(C)Oc1ccc(Cl)cc1 [Clofibrate] | 130 µM | – | – | –
65 | C/C=C/c1ccc(OC)cc1 [(E)-Anethole] | 35 µM | – | – | –
66 | COc1ccc([N+](=O)[O-])cc1N [2-Methoxy-5-nitroaniline] | 90 µM | – | – | –
67 | CCCCCCCCCCCCCCCS(=O)(=O)Oc1ccccc1 [C10-21 sulfonic acids phenyl esters] | – | 130 µM | – | –
68 | CC(=O)Nc1ccc(O)cc1 [Acetaminophen] | 36 µM | – | – | –
69 | Clc1ccc(Cl)c(Cl)c1 [1,2,4-Trichlorobenzene] | 100 µM | – | – | –
70 | COC(=O)Nc1nc2ccccc2[nH]1 [Carbendazim] | < 4.5 µM | – | – | 32 µM
71 | CC/C(=C(/CC)c1ccc(O)cc1)c1ccc(O)cc1 [Diethylstilbestrol] | 4.8 µM | – | – | –
72 | O=c1[nH]c(=O)[nH]c(=O)[nH]1 [Cyanuric acid] | 91 µM | – | – | –
73 | c1ccc2occc2c1 [2,3-Benzofuran] | 61 µM | – | – | –
74 | O=C1C2(Cl)C3(Cl)C4(Cl)C(Cl)(Cl)C5(Cl)C3(Cl)C1(Cl)C5(Cl)C24Cl (centres undefined) [Kepone] | – | 30 µM | 53 µM | –
75 | OCCOCCO [Diethylene glycol] | – | 79 µM | – | –
76 | CCCCCCCCn1sccc1=O [Octhilinone] | – | < 4.5 µM | – | –
77 | O=S(=O)(O)C(F)(F)C(F)(F)C(F)(F)C(F)(F)C(F)(F)C(F)(F)C(F)(F)C(F)(F)F [PFOS] | – | 18 µM | – | –
78 | CCCCOCCOCCO [2-(2-Butoxyethoxy)ethanol] | 100 µM | – | – | –
79 | Nc1ccc(S(=O)(=O)c2ccc(N)cc2)cc1 [Dapsone] | 39 µM | – | – | –
